The target in experiment [1] is Core antigen (Hepatitis B virus) (UniProt Q03732). Kind of experiment: (§1) Binding affinity to HBcAg.
In the next experiment the target is Core antigen (Hepatitis B virus, UniProt Q03732). The description is as §1.

SMILES strings stand for the structures. Where a SMILES comes first, the peptide text is derived from it.

Core antigen, sequence (Q03732 whole entry): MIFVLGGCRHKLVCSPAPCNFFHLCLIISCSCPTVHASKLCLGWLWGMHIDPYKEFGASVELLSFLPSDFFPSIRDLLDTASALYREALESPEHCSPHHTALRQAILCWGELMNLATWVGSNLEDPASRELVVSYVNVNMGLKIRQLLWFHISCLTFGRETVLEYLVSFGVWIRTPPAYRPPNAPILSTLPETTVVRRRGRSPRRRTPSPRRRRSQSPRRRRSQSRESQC
Core antigen (Hepatitis B virus), sequence (Q03732 as listed by the source): as the sequence (Q03732 whole entry) above

The Kd is the equilibrium constant for the complex coming apart. High values mean lower affinity, low ones higher affinity. With `CSCC[C@H](NC(=O)[C@H](CCCNC(=N)N)NC(=O)CNC(=O)[C@H](CC(C)C)NC(=O)[C@H](CC(C)C)NC(=O)[C@H](CO)NC(=O)[C@H](CCCNC(=N)N)NC(=O)[C@H](Cc1cnc[nH]1)NC(=O)[C@@H](N)CCSC)C(=O)N[C@@H](CCCCN)C(=O)NCC(=O)N[C@@H](C)C(=O)O`, the Ka in experiment [1] is 1.26 10^4/M. Further, on Core antigen, the Kd worked out at 79.4 µM.
The matching figures for `CC[C@H](C)[C@H](NC(=O)[C@H](CC(N)=O)NC(=O)[C@H](CO)NC(=O)[C@H](Cc1ccccc1)NC(=O)[C@H](Cc1ccccc1)NC(=O)[C@H](CO)NC(=O)[C@@H](N)Cc1c[nH]c2ccccc12)C(=O)O` (H-WSFFSNI-OH): 5.4 10^4/M and 18.5 µM.
